In patent publication US8003595B2, “Amino acid sequences facilitating penetration of a substance of interest into cells and/or cell nuclei” (Cellectis, priority 2000, dated 2011):
Where two headings read alike, the source gives them in different places. Marks after values point to notes of the source that are not given here. Where no end group is shown, it is not given here.

Experiments:
[1] = tested on: H1299 cells; assay: Penetration of peptide-cytochrome C conjugates (microscopy); assay type: cell-based, human; design: key: +++: intense; ++: positive; +: slightly positive; −: negative; details: 4 hours
Experimental: The penetration of the peptide-cytochrome C conjugates is evaluated with some conjugates prepared with peptides having a biotin on the N-terminal side. H1299 cells are cultivated in the presence of the different (biotinylated) peptide-cytochrome C conjugates at decreasing concentrations (100 to 25 μg/ml) in the culture medium for 4 hours at 37° C. At the end of the culture, the cells are washed three times with PBS, then fixed 15 minutes in ethanol at −20°. The penetration of the peptide-biotin-cytochrome C conjugate is evaluated after incubation for 60 minutes with some avidin coupled with peroxidase. The cells are then washed with PBS, and the activity of the peroxidase is indicated by diaminobenzidine in the presence of H2O2.
The penetration dependent on the concentration of conjugates in the culture medium is evaluated under the microscope by the intensity of the coloration expressed by crosses. Table 24 indicates the penetration of the peptide-cytochrome C conjugates in the cells.

[2] = tested on: H1299 cells; assay: Growth inhibition by peptide-cytochrome C conjugates (MTT); assay type: cell-based, human
Experimental: (§1) H1299 or HT29 cells (3×10^4 cells/well) are cultivated in 96-well plates for 48 hours at 37° C. in the complete culture medium RPMI with decreasing concentrations (200-3 μg/ml) of natural cytochrome C or cytochrome C conjugated with peptides added, and the culture is continued for 48 hours.
(§2) Table 25 gives the inhibition of growth of the cells by the […].

[3] = tested on: HT29 cells; assay: as above; assay type: cell-based, human
Experimental: as §1, §2

[4] = tested on: 3T3 cells; assay: Heparin inhibition of internalization of peptide-peroxidase conjugates; assay type: cell-based, mouse
Experimental: (§3) a) Heparin (50 μg/ml) was incubated with the cells for 1 hour before adding the peptide-peroxidase conjugates at 0.2 μg/ml for 2 hours. The cells were then lysed and the peroxidase dosed.
(§4) The quantity of heparin necessary to inhibit 50% penetration of the peptides coupled to peroxidase was evaluated with these two types of cells, by incubating the cells with the peptide-peroxidase conjugates with increasing concentrations of heparin. The results of inhibiting internalization of the peptides are expressed as the heparin concentration (μg/ml) in Table 2 below.

[5] = tested on: HeLa cells; assay: as above; assay type: cell-based, human
Experimental: as §3, §4

[6] = ELISA fixation of biotinylated peptides on sensitized plates; assay type: binding; details: read-out: avidity (Kd), quantity of peptides necessary to obtain 50% fixation, Heparin; Table 5
Experimental: The capacity of peptides SEQ ID NO: 1 to 21 to attach themselves to DNA and heparin is evaluated on ELISA plates sensitized with DNA or heparin. Dilutions of biotinylated peptides are deposited on the plates and their fixation is shown using streptavidin conjugated with peroxidase. […] The avidity of each of the peptides for DNA or heparin is evaluated by the quantity (×10^−6 M) of peptides necessary to obtain 50% fixation.

[7] = as above; assay type: binding; details: read-out: avidity (Kd), quantity of peptides necessary to obtain 50% fixation, Chondroitin A; Table 5
[8] = as above; assay type: binding; details: read-out: avidity (Kd), quantity of peptides necessary to obtain 50% fixation, Chondroitin B; Table 5
[9] = as above; assay type: binding; details: read-out: avidity (Kd), quantity of peptides necessary to obtain 50% fixation, Chondroitin C; Table 5
[10] = tested on: H1299 cells; assay: Internalization of biotinylated peptide/S-PO complexes; assay type: cell-based, human; details: peptide: S-PO complexes of 4:1, peptide concentration of 1 μg
Outline: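 Biotinylated peptides precomplexed 15 min with streptavidin- or avidin-peroxidase at 25:1 or 4:1 peptide:conjugate molar ratio in PBS, diluted in complete medium and incubated with H1299 cells for 4 h. After washing and lysis, internalised peroxidase quantified with ortho-dianisidine/H2O2 at 450 nm against an S-PO standard curve, as pg per 10^4 cells.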

[11] = tested on: H1299 cells; assay: Internalization of covalent peptide-peroxidase conjugates; assay type: cell-based, human; details: Table 9; H1299; 0.2 μg/ml conjugate, 2 hours
Experimental: (§5) To evaluate more directly the penetration of the peptides, avoiding the avidin-peroxidase bias, some of the peptides in sequences SEQ ID NO: 25 to 48 were conjugated covalently with cysteine in the C-terminal position of the peptide to peroxidase. The peptides were coupled with peroxidase in the following way:
(§6) One mg of peroxidase activated with maleimide (Sigma) in 100 μl of sodium phosphate buffer, NaCl 0.15 M, EDTA 5 mM, had 1 mg of peptide added to it. After 2 hours at laboratory temperature, β-mercaptoethanol is added to a final concentration of 1.5 mM for 15 minutes. The uncoupled peptide is eliminated by centrifugation on ultrafiltration membranes (cut-off threshold=30,000 Daltons, Sartorius), followed by three washings in sodium phosphate buffer 0.1 M, pH 7.4 containing 0.15 M NaCl.
The H1299 cells are incubated for 2 hours with the conjugates at increasing concentrations of peptide-peroxidase in the culture medium, then washed with PBS. The cells are lysed and the quantity of peptide internalized is evaluated by the dosage of peroxidase in the lysate of the cells with reference to a curve established with peptide-peroxidase.
The quantity of peptide internalized (pg/10^3 cells), depending on the concentrations of conjugates in the culture medium, is shown in Table 8 below.
(§7) It appears that the higher the concentration of peptide-peroxidase conjugate in the culture medium, the more the quantity internalized increases. To compare the penetration of the conjugates by cell type, the cells from different lines were incubated with 0.2 μg/ml of peptide-peroxidase conjugate for 2 hours, and the quantity of peroxidase dosed in the lysates. Table 9 and Table 9B below give the results expressed in pg/10^3 cells. The quantity of each peptide internalized in the different lines generally varies only from single to double.

[12] = tested on: 3T3; assay: as above; assay type: cell-based, mouse; details: Table 9, 0.2 μg/ml conjugate, 2 hours
Experimental: as §5, §6, §7

[13] = tested on: HeLa; assay: as above; assay type: cell-based, human; details: Table 9, 0.2 μg/ml conjugate, 2 hours
Experimental: as §5, §6, §7

[14] = tested on: Enterococcus faecalis (ATCC 29212); assay: microbe, parasite or virus in culture; assay type: cell-based; details: ATCC 29212
Experimental: (§8) The gram-positive bacterial strains are: Enterococcus faecalis (ATCC 29212), and Staphylococcus aureus (ATCC 25923) and the gram-negative strains are: Escherichia coli (ATCC 25922), Pseudomonas aeruginosa (ATCC 27853) and Salmonella typhimurim (clinical isolate), Salmonella typhiTy2 (WHO). The bacteria are cultured with shaking all night at 37° C., then recultured at a dilution of 1:50 in some fresh Luria-Bertani (LB) medium for 2 hours. The bacterial concentration is adjusted to […], and 50 μl is distributed in 96-well plates with an equal volume of peptides diluted half and half (256-0.5 μg/ml) in LB medium. […] To determine the minimum bactericide concentration, 10 μl from each well is spread on gelose plates in LB medium.
(§9) The results are expressed as the peptide concentration in MBC (μM).

[15] = tested on: Escherichia coli (ATCC 25922); assay: microbe, parasite or virus in culture; assay type: cell-based; details: ATCC 25922; read-out: MBC
Experimental: as §8, §9

[16] = tested on: Pseudomonas aeruginosa (ATCC 27853); assay: microbe, parasite or virus in culture; assay type: cell-based; details: ATCC 27853
Experimental: as §8, §9

[17] = tested on: Staphylococcus aureus (ATCC 25923); assay: microbe, parasite or virus in culture; assay type: cell-based; details: ATCC 25923
Experimental: as §8, §9

[18] = tested on: Salmonella typhiTy2 (WHO); assay: microbe, parasite or virus in culture; assay type: cell-based, S. typhi-Ty2; details: S. typhi-Ty2
Experimental: as §8, §9

[19] = tested on: gram-positive and gram-negative bacterial strains; assay: Antibacterial activity of cationic peptides, summary over strains; assay type: cell-based; details: summary of Table 29
Experimental: as §8
However, when peptide HPB13 (SEQ ID NO: 38) is coupled with peptide SEQ ID NO: 24, it enhances its activity by a factor of 50 to 100 (peptide SEQ ID NO: 45). […] None these peptides are active on gram-positive bacteria.

[20] = tested on: HH9 tumors; design: species or system nude mice; details: mouse, in vivo
Experimental: The nude mice received subcutaneous transplants of HH9 tumor cells as described above. On day 9 after the transplant, the mice received twice a week, by peritumoral injection, 100 μg of RNase, or 65 μg of peptide (HBP3)2 or 65 μg of peptide (HBP3)2+100 μg of RNase, or 100 μg of peptide conjugate (HBP3)2-RNase or HBP6-RNase conjugate. On day 26, the mice were killed and their tumors weighed.

[21] = tested on: HeLa cells; assay: Penetration of peroxidase transported by peptide-IgG anti-PO transporter; assay type: cell-based, human; details: via the transporter [peptide-IgG anti-PO]
Experimental: Two mg of specific monoclonal IgG antibody of peroxidase or their fragment F(ab′)2 in 1 ml of potassium phosphate buffer 0.1 M, pH 7.4 are added to 110 μg of SMCC [succinimidyl 4-(N-maleimidomethyl)cyclohexane-1-carboxylate] in 11 μl of dimethylsulfoxide. The solution is incubated for 45 minutes at laboratory temperature. The excess reagent is eliminated by centrifugation on ultrafiltration membranes (cutoff threshold =10,000 Da, Vivascience), followed by three washings in sodium phosphate buffer 10 mM, pH 7 containing 0.5 M of NaCl and 5 mM of EDTA.
The peptide is then coupled in a molar ratio of 6 peptides to 1 IgG or 1 F(ab′)2 in the sodium phosphate buffer 10 mM, pH 7, containing 0.5 M of NaCl and 5 mM of EDTA for three hours at laboratory temperature. Then, the excess uncoupled peptide is totally eliminated by centrifugation on ultrafiltration membranes, as in the preceding step. These transporters [peptide-IgG anti-PO] are added to the peroxidase or the biotinylated peroxidase in some 0.5 M NaCl buffer. The solution is incubated for 1 hour at laboratory temperature. The molar ratio of this reaction is 2 PO/1 IgG or F(ab′)2. […]
To measure the quantity of PO internalized, the cells are trypsinized, transferred into microtubes and counted. […]

Molecule: Natural cytochrome C: hemoprotein, single polypeptide chain of 104 amino acids
- penetration, intensity of the coloration ([1]; 25 μg/ml): −
- penetration, intensity of the coloration ([1]; 50 μg/ml): −
- penetration, intensity of the coloration ([1]; 100 μg/ml): −*
- % inhibition of growth ([2]; 3 μg/ml): 0%
- % inhibition of growth ([2]; 6 μg/ml): 0%
- % inhibition of growth ([2]; 12.5 μg/ml): 0%
- % inhibition of growth ([2]; 25 μg/ml): 0%
- % inhibition of growth ([2]; 50 μg/ml): 0%
- % inhibition of growth ([2]; 100 μg/ml): 0* %
- % inhibition of growth ([3]; 12.5 μg/ml): 0%
- % inhibition of growth ([3]; 25 μg/ml): 0%
- % inhibition of growth ([3]; 50 μg/ml): 10%
- % inhibition of growth ([3]; 100 μg/ml): 19%
- % inhibition of growth ([3]; 200 μg/ml): 12* %

Molecule: GRPRESGKKRKRKRLKP [SEQ ID NO: 21]
- heparin concentration necessary to inhibit 50% penetration of the peptides coupled to peroxidase [4]: 4.1 µg/mL
- heparin concentration necessary to inhibit 50% penetration of the peptides coupled to peroxidase [5]: 2.3 µg/mL
- Kd [6]: 16 nM
- Kd [7]: 135 nM
- Kd [8]: 110 nM
- Kd [9]: 12 nM
- S-PO internalized [10]: 1680 pg/10^4 cells
- Internalization of Peptide-peroxidase [11]: 21.9 pg/10^3 cells
- Internalization of Peptide-peroxidase [12]: 83.7 pg/10^3 cells
- Internalization of Peptide-peroxidase [13]: 13.2 pg/10^3 cells

Molecule: VKRGLKLVKRGLKLVKRGLKL [SEQ ID NO: 3]
- Kd [6]: 41 nM
- Kd [7]: 37 nM
- Kd [8]: 41 nM
- Kd [9]: 35 nM
- S-PO internalized [10]: 642 pg/10^4 cells
- Internalization of Peptide-peroxidase [11]: 17.7 pg/10^3 cells
- Internalization of Peptide-peroxidase [12]: 24.6 pg/10^3 cells
- Internalization of Peptide-peroxidase [13]: 11.2 pg/10^3 cells
- MBC [14]: >106 µM
- MBC [15]: 13.25 µM
- MBC [16]: 26.5 µM
- MBC [17]: >106 µM
- MBC [18]: 1.65 µM
- bactericide / anti-microbial activity [19]: has bactericide activity

Molecule: SERKKRRRESRKKRRRES [SEQ ID NO: 26]
- Inhibition of the growth of the tumors [20]: 10%

B1: Peroxidase (PO): peroxidase transported by the transporter [peptide-IgG anti-PO] (protein)
chain: QLTPTFYDNSCPNVSNIVRDTIVNELRSDPRIAASILRLHFHDCFVNGCDASILLDNTTSFRTEKDAFGNANSARGFPVIDRMKAAVESACPRTVSCADLLTIAAQQSVTLAGGPSWRVPLGRRDSLQAFLDLANANLPAPFFTLPQLKDSFRNVGLNRSSDLVALSGGHTFGKNQCRFIMDRLYNFSNTGLPDPTLNTTYLQTLRGLCPLNGNLSALVDFDLRTPTIFDNKYYVNLEEQKGLIQSDQELFSSPNATDTIPLVRSFANSTQTFFNAFVEAMDRMGNITPLTGTQGQIRLNCRVVNSNS
- Quantity of molecules internalized [21]: 2100 pg/10^4 cells

B2: Biotinylated PO: biotinylated peroxidase transported by the transporter [peptide-IgG anti-PO] (protein)
chain: B1 chain
- Quantity of molecules internalized [21]: 1700 pg/10^4 cells
